Results taken from patent publication US9499550B2 (BRISTOL-MYERS SQUIBB COMPANY, priority 2012, dated 2016).
Like-named read-outs stand apart in the source and are kept apart here.

What was measured:
[1] = system: HCV genotype 1b (Con1) replicon in HUH-7 cells; assay: HCV replicon luciferase reporter assay, genotype 1b; assay type: cell-based; conditions: Hepatitis C virus, Huh-7, 72 h, HCV genotype 1b replicon luciferase, 3 days incubation, read-out: LE_1b (EC50, range)
Procedure, shortened: (§1)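 Replicon inhibition for both genotypes was measured as Renilla luciferase signal (EnduRen, 7.5 μM final, 2 h) after 3-day, 37° C exposure of replicon-bearing HUH-7 cells in 4% FCS DMEM, 0.5% DMSO. The 1b construct carries S1179I; the 1a H77 construct carries P1496L and S2204I. Twenty-point, 3-fold dilutions were fitted four-parametrically for EC50, and CC50 was taken from multiplexed Cell Titer-Blue.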

[2] = system: HCV genotype 1a (H77 strain) replicon in HUH-7 cells; assay: HCV replicon luciferase reporter assay, genotype 1a; assay type: cell-based; conditions: Hepatitis C virus, Huh-7, 72 h, HCV genotype 1a replicon luciferase, 3 days incubation, read-out: LE_1a (EC50, range)
Procedure, shortened: as §1

Compound	EC50 [1] [nM]	EC50 [2] [nM]	EC50 ([1]; GETYPE1B) [nM]	EC50 ([2]; GETYPE1A) [nM]
C[C@@H]1CC/C=C\[C@@H]2C[C@@]2(C(=O)NS(=O)(=O)C2CC2)NC(=O)[C@@H]2C[C@@H](Oc3nccc4ccc(F)cc34)CN2C(=O)[C@@H](NC(=O)OC(C)(C)C)[C@H](C)C1 [Compound 4071, tert-butyl (2R,6S,7R,9R,13aS,14aR,16aS,Z)-14a-(cyclopropylsulfonylcarbamoyl)-2-(7-fluoroisoquinolin-1-yloxy)-7,9-dimethyl-5,16-dioxo-1,2,3,5,6,7,8,9,10,11,13a,14,14a,15,16,16a-hexadecahydrocyclopropa[e]pyrrolo[1,2-a][1,4]diazacyclopentadecin-6-ylcarbamate]	< 5.46	< 5.46		
C[C@@H]1CC/C=C\[C@@H]2C[C@@]2(C(=O)NS(=O)(=O)C2CC2)NC(=O)[C@@H]2C[C@@H](Oc3nccc4ccc(F)cc34)CN2C(=O)[C@@H](NC(=O)OC2(C)CC2)[C@H](C)C1 [Compound 4073, 1-methylcyclopropyl (2R,6S,7R,9R,13aS,14aR,16aS,Z)-14a-(cyclopropylsulfonylcarbamoyl)-2-(7-fluoroisoquinolin-1-yloxy)-7,9-dimethyl-5,16-dioxo-1,2,3,5,6,7,8,9,10,11,13a,14,14a,15,16,16a-hexadecahydrocyclopropa[e]pyrrolo[1,2-a][1,4]diazacyclopentadecin-6-ylcarbamate]	< 5.46	< 5.46		
COc1cc2c(OC)cnc(O[C@@H]3C[C@H]4C(=O)N[C@]5(C(=O)NS(=O)(=O)C6CC6)C[C@H]5/C=C\CC[C@@H](C)C[C@@H](C)[C@H](NC(=O)OC(C)(C)C)C(=O)N4C3)c2cc1F [Compound 4074, tert-butyl (2R,6S,7R,9R,13aS,14aR,16aS,Z)-14a-(cyclopropylsulfonylcarbamoyl)-2-(7-fluoro-4,6-dimethoxyisoquinolin-1-yloxy)-7,9-dimethyl-5,16-dioxo-1,2,3,5,6,7,8,9,10,11,13a,14,14a,15,16,16a-hexadecahydrocyclopropa[e]pyrrolo[1,2-a][1,4]diazacyclopentadecin-6-ylcarbamate]	< 5.46	< 5.46		
CCOc1cnc(O[C@@H]2C[C@H]3C(=O)N[C@]4(C(=O)NS(=O)(=O)C5(C)CC5)C[C@H]4/C=C\CC[C@@H](C)C[C@@H](C)[C@H](NC(=O)OC(C)(C)C)C(=O)N3C2)c2cc(Cl)ccc12 [Compound 4075, tert-butyl (2R,6S,7R,9R,13aS,14aR,16aS,Z)-2-(7-chloro-4-ethoxyisoquinolin-1-yloxy)-7,9-dimethyl-14a-(1-methylcyclopropylsulfonylcarbamoyl)-5,16-dioxo-1,2,3,5,6,7,8,9,10,11,13a,14,14a,15,16,16a-hexadecahydrocyclopropa[e]pyrrolo[1,2-a][1,4]diazacyclopentadecin-6-ylcarbamate]	< 5.46	< 5.46		
CCOc1cnc(O[C@@H]2C[C@H]3C(=O)N[C@]4(C(=O)NS(=O)(=O)C5(C)CC5)C[C@H]4/C=C\CC[C@@H](C)C[C@@H](C)[C@H](NC(=O)OC(C)(C)C(F)(F)F)C(=O)N3C2)c2cc(Cl)ccc12 [Compound 4076]			< 5.46	< 5.46
CCC1(S(=O)(=O)NC(=O)[C@@]23C[C@H]2/C=C\CC[C@@H](C)C[C@@H](C)[C@H](NC(=O)OC(C)(C)C(F)(F)F)C(=O)N2C[C@H](Oc4nccc5cc(OC)ccc45)C[C@H]2C(=O)N3)CC1 [Compound 4077]			< 5.46	< 5.46
COc1ccc2c(O[C@@H]3C[C@H]4C(=O)N[C@]5(C(=O)NS(=O)(=O)C6(C)CC6)C[C@H]5/C=C\CC[C@@H](C)C[C@@H](C)[C@H](NC(=O)OC(C)(C)C)C(=O)N4C3)nc(-c3ccc(C(C)(C)C)cc3)cc2c1 [Compound 4078, tert-butyl (2R,6S,7R,9R,13aS,14aR,16aS,Z)-2-(3-(4-tert-butylphenyl)-6-methoxyisoquinolin-1-yloxy)-7,9-dimethyl-14a-(1-methylcyclopropylsulfonylcarbamoyl)-5,16-dioxo-1,2,3,5,6,7,8,9,10,11,13a,14,14a,15,16,16a-hexadecahydrocyclopropa[e]pyrrolo[1,2-a][1,4]diazacyclopentadecin-6-ylcarbamate]	4.82 to 103	4.82 to 103		
